A value given as a limit tells only on which side of the number the result lay.

This assay deals with T1, Avi-tagged FL MALT-1 (Homo sapiens, UniProt Q9UDY8).
T1 construct: Avi-tagged FL MALT-1 (Pharmaron, stored at −70° C.); Avi-tag; purchased Pharmaron
T1 sequence (Q9UDY8 1-824): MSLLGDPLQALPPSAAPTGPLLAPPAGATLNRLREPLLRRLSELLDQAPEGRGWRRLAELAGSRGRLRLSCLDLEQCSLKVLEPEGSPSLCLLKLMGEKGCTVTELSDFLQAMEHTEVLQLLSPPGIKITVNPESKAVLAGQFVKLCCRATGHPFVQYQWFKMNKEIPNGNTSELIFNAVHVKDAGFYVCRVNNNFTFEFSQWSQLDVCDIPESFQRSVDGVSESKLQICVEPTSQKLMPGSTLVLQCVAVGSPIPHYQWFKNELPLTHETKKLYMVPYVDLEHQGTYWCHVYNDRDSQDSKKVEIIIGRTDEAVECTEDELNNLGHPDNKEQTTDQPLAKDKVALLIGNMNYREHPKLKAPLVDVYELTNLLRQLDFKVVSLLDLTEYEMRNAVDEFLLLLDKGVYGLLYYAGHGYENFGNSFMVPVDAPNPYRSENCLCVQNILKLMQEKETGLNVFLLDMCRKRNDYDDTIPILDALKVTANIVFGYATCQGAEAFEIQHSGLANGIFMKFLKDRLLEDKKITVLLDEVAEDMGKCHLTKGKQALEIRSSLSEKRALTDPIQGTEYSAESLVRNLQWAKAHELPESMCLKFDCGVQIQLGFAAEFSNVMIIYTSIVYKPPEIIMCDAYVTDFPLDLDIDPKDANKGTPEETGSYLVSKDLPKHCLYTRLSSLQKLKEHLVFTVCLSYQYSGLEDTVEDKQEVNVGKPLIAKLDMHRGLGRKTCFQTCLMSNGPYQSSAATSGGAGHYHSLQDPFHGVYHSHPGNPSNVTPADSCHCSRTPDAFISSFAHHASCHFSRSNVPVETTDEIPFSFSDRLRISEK
Put plainly: MALT-1 Fluorogenic Peptide Cleavage Assay (MALT1 inhibition assay). The class given is biochemical. To be noted: Ac-LRSR-AMC peptide substrate; 30 min pre-incubation, 90 min reaction at room temperature; fluorescence. The procedure, abridged: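 Full-length Avi-tagged enzyme preincubated 30 min at room temperature with compound (2% DMSO final) in HEPES pH 6.89 buffer with sodium citrate, TCEP, EDTA and CHAPS. Ac-LRSR-AMC substrate added at Km or 10×Km (working stocks 50 or […] μM); fluorescence (ex 342/em 441 nm) after 90 min; IC50 from sigmoidal fit.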
For `O=C(Nc1ccnc(C(F)(F)F)c1)c1snc(-c2ccc3ncsc3c2)c1C1CC1` [I-153, 3-(1,3-benzothiazol-6-yl)-4-cyclopropyl-N-[2-(trifluoromethyl)pyridin-4-yl]-1,2-thiazole-5-carboxamide], the IC50 was at most 400 nM. The value for `O=C(Nc1ccnc(C(F)(F)F)c1)c1snc(-c2ccc(C(F)F)cc2)c1C1CC1` [I-154, 4-cyclopropyl-3-(4-(difluoromethyl)phenyl)-N-(2-(trifluoromethyl)pyridin-4-yl)isothiazole-5-carboxamide] was at most 400 nM. The value for `O=C(Nc1ccnc(C(F)(F)F)c1)c1snc(-c2ccncc2F)c1C1CC1` [I-155, 4-cyclopropyl-3-(3-fluoropyridin-4-yl)-N-[2-(trifluoromethyl)pyridin-4-yl]-1,2-thiazole-5-carboxamide] was at most 400 nM; that for `COc1cccc(-c2nsc(C(=O)Nc3ccnc(C(F)(F)F)c3)c2C2CC2)c1` [I-156, 4-cyclopropyl-3-(3-methoxyphenyl)-N-(2-(trifluoromethyl)pyridin-4-yl)isothiazole-5-carboxamide] was at most 400 nM.

The compound `Cn1cc2c(-c3nsc(C(=O)Nc4ccnc(C(F)(F)F)c4)c3C3CC3)cccc2n1` [I-157, 4-cyclopropyl-3-(2-methyl-2H-indazol-4-yl)-N-(2-(trifluoromethyl)pyridin-4-yl)isothiazole-5-carboxamide] returned an IC50 of at most 400 nM. The figure for `N#Cc1cccc(-c2nsc(C(=O)Nc3ccnc(C(F)(F)F)c3)c2C2CC2)c1` [I-158, 3-(3-cyanophenyl)-4-cyclopropyl-N-[2-(trifluoromethyl)pyridin-4-yl]-1,2-thiazole-5-carboxamide] is at most 400 nM; for `O=C(Nc1ccnc(C(F)(F)F)c1)c1snc(-c2cccc3scnc23)c1C1CC1` [I-159, 3-(1,3-benzothiazol-4-yl)-4-cyclopropyl-N-[2-(trifluoromethyl)pyridin-4-yl]-1,2-thiazole-5-carboxamide] it is at most 400 nM. The value for `Cc1ccccc1-c1nsc(C(=O)Nc2ccnc(C(F)(F)F)c2)c1C1CC1` [I-160, 4-cyclopropyl-3-(2-methylphenyl)-N-[2-(trifluoromethyl)pyridin-4-yl]-1,2-thiazole-5-carboxamide] was at most 400 nM; that for `COc1ccccc1-c1nsc(C(=O)Nc2ccnc(C(F)(F)F)c2)c1C1CC1` [I-161, 4-cyclopropyl-3-(2-methoxyphenyl)-N-[2-(trifluoromethyl)pyridin-4-yl]-1,2-thiazole-5-carboxamide] was at most 400 nM. The value for `O=C(Nc1ccnc(C(F)(F)F)c1)c1snc(-c2cccc3ocnc23)c1C1CC1` [I-162, 3-(1,3-benzoxazol-4-yl)-4-cyclopropyl-N-[2-(trifluoromethyl)pyridin-4-yl]-1,2-thiazole-5-carboxamide] was at most 400 nM. On to `COc1ncccc1-c1nsc(C(=O)Nc2ccnc(C(F)(F)F)c2)c1C1CC1` [I-163, 4-cyclopropyl-3-(2-methoxypyridin-3-yl)-N-(2-(trifluoromethyl)pyridin-4-yl)isothiazole-5-carboxamide], for which the IC50 is at most 400 nM. The figure for `O=C(Nc1ccnc(C(F)(F)F)c1)c1snc(-c2ccccc2C(F)(F)F)c1C1CC1` [I-164, 4-cyclopropyl-3-(2-(trifluoromethyl)phenyl)-N-(2-(trifluoromethyl)pyridin-4-yl)isothiazole-5-carboxamide] is at most 400 nM. The value for `O=C(Nc1ccnc(C(F)(F)F)c1)c1snc(-c2cccnc2)c1C1CC1` [I-165, 4-cyclopropyl-3-(pyridin-3-yl)-N-(2-(trifluoromethyl)pyridin-4-yl)isothiazole-5-carboxamide] was at most 400 nM; that for `O=C(Nc1ccnc(C(F)(F)F)c1)c1snc(-c2ccc3[nH]ncc3c2)c1C1CC1` [I-166, 4-cyclopropyl-3-(1H-indazol-5-yl)-N-(2-(trifluoromethyl)pyridin-4-yl)isothiazole-5-carboxamide] was at most 400 nM. As for `Cc1cncc(-c2nsc(C(=O)Nc3ccnc(C(F)(F)F)c3)c2C2CC2)c1` [I-167, 4-cyclopropyl-3-(5-methylpyridin-3-yl)-N-(2-(trifluoromethyl)pyridin-4-yl)isothiazole-5-carboxamide], the IC50 is 400 to 1000 nM. The figure for `Cn1ncc2cc(-c3nsc(C(=O)Nc4ccnc(C(F)(F)F)c4)c3C3CC3)ccc21` [I-168, 4-cyclopropyl-3-(1-methyl-1H-indazol-5-yl)-N-(2-(trifluoromethyl)pyridin-4-yl)isothiazole-5-carboxamide] is 400 to 1000 nM. The figure for `O=C(Nc1ccnc(C(F)(F)F)c1)c1snc(-c2ccc3cn[nH]c3c2)c1C1CC1` [I-169, 4-cyclopropyl-3-(1H-indazol-6-yl)-N-(2-(trifluoromethyl)pyridin-4-yl)isothiazole-5-carboxamide] is at most 400 nM; for `COc1ccncc1-c1nsc(C(=O)Nc2ccnc(C(F)(F)F)c2)c1C1CC1` [I-170, 4-cyclopropyl-3-(4-methoxypyridin-3-yl)-N-(2-(trifluoromethyl)pyridin-4-yl)isothiazole-5-carboxamide] it is at most 400 nM; for `Cc1ncccc1-c1nsc(C(=O)Nc2ccnc(C(F)(F)F)c2)c1C1CC1` [I-171, 4-cyclopropyl-3-(2-methylpyridin-3-yl)-N-[2-(trifluoromethyl)pyridin-4-yl]-1,2-thiazole-5-carboxamide] it is at most 400 nM. In turn, `O=C(Nc1ccnc(C(F)(F)F)c1)c1snc(-c2ccc(F)cc2)c1C1CC1` [I-172, 4-cyclopropyl-3-(4-fluorophenyl)-N-[2-(trifluoromethyl)pyridin-4-yl]-1,2-thiazole-5-carboxamide] showed a concentration for half-maximal inhibition (IC50) of at most 400 nM.

`Cc1ccncc1-c1nsc(C(=O)Nc2ccnc(C(F)(F)F)c2)c1C1CC1` [I-173, 4-cyclopropyl-3-(4-methylpyridin-3-yl)-N-(2-(trifluoromethyl)pyridin-4-yl)isothiazole-5-carboxamide] yielded an IC50 of at most 400 nM. The value for `O=C(Nc1ccnc(C(F)(F)F)c1)c1snc(-c2cccc(C(F)F)c2)c1C1CC1` [I-174, 4-cyclopropyl-3-[3-(difluoromethyl)phenyl]-N-[2-(trifluoromethyl)pyridin-4-yl]-1,2-thiazole-5-carboxamide] was at most 400 nM; that for `Cn1ccc2c(-c3nsc(C(=O)Nc4ccnc(C(F)(F)F)c4)c3C3CC3)ccnc21` [I-175, 4-cyclopropyl-3-{1-methylpyrrolo[2,3-b]pyridin-4-yl}-N-[2-(trifluoromethyl)pyridin-4-yl]-1,2-thiazole-5-carboxamide] was at most 400 nM. The value for `CNC(=O)c1ccc(-c2nsc(C(=O)Nc3ccnc(C(F)(F)F)c3)c2C2CC2)cc1` [I-176, 4-cyclopropyl-3-[4-(methylcarbamoyl)phenyl]-N-[2-(trifluoromethyl)pyridin-4-yl]-1,2-thiazole-5-carboxamide] was 1000 to 2500 nM; that for `O=C(Nc1ccnc(C(F)(F)F)c1)c1snc(-c2cncc3ccccc23)c1C1CC1` [I-177, 4-cyclopropyl-3-(isoquinolin-4-yl)-N-(2-(trifluoromethyl)pyridin-4-yl)isothiazole-5-carboxamide] was at most 400 nM; that for `Cc1cccc(-c2nsc(C(=O)Nc3ccnc(C(F)(F)F)c3)c2C2CC2)c1` [I-178, 4-cyclopropyl-3-(3-methylphenyl)-N-[2-(trifluoromethyl)pyridin-4-yl]-1,2-thiazole-5-carboxamide] was at most 400 nM.

`N#Cc1cc(NC(=O)c2snc(-c3cccc4ncccc34)c2C2CC2)ccc1C(=O)N1CC(O)C1` [I-180, N-(3-cyano-4-(3-hydroxyazetidine-1-carbonyl)phenyl)-4-cyclopropyl-3-(quinolin-5-yl)isothiazole-5-carboxamide] had an IC50 of at most 400 nM. The value for `Cn1cc(-c2nsc(C(=O)Nc3ccnc(C(F)(F)F)c3)c2C2CC2)cn1` [I-181, 4-cyclopropyl-3-(1-methyl-1H-pyrazol-4-yl)-N-(2-(trifluoromethyl)pyridin-4-yl)isothiazole-5-carboxamide] was 1000 to 2500 nM; that for `O=C(Nc1ccnc(C(F)(F)F)c1)c1snc(-c2cccc3[nH]ncc23)c1C1CC1` [I-182, 4-cyclopropyl-3-(1H-indazol-4-yl)-N-(2-(trifluoromethyl)pyridin-4-yl)isothiazole-5-carboxamide] was at most 400 nM. The value for `Cc1c(-c2nsc(C(=O)Nc3ccnc(C(F)(F)F)c3)c2C2CC2)cnn1C` [I-183, 4-cyclopropyl-3-(1,5-dimethyl-1H-pyrazol-4-yl)-N-(2-(trifluoromethyl)pyridin-4-yl)isothiazole-5-carboxamide] was at most 400 nM.

A word on the IC50: it is the midpoint of a concentration-inhibition curve.

(Values after US20260124222A1, “ISOTHIAZOLYLCARBOXAMIDE COMPOUNDS AND THEIR USE IN THERAPY” (HOTSPOT THERAPEUTICS, INC., priority 2022, published 2026).)
